Measured values published in patent US7629318B2, “Immunosuppressant compounds, methods and uses related thereto” (priority 2002, dated 2009).
Square brackets hold non-standard residues; d marks the D form. Peptide text beside a SMILES is read from it. * marks the point of attachment. Gly(1-amidinopiperidin-4-yl) = N=C(N)N1CCC([C@H](N)C(=O)O)CC1; Tetrahydroisoquinolin(2-yl) = c1ccc2c(c1)CCN(*)C2; Tic = O=C(O)[C@@H]1Cc2ccccc2CN1; Cha = N[C@@H](CC1CCCCC1)C(=O)O; X4 = OCCOCCN(CCc1ccccc1)*; Nle = CCCC[C@H](N)C(=O)O; X2 = OCCOCCN(Cc1ccccc1)*; X5 = OCCN(Cc1ccccc1)*

Tests used:
[1] = target: DR1 (DRA1*0101 DRB1*0101) (Homo sapiens, UniProt P01903+P01911, A100R/D57E/F55L/F60I/F76Y/I96L/L162R/M171V/P40L/Q125E/R42F/V115G/Y59C); experiment: Competitive binding to MHC-II protein DR1; conditions: Protein binding IC50 (nM) 0101, 0101
Description: (§1) Interaction mixtures lacking the peptidomimetic compound and both peptide mimetic compound and MHC-II were used as positive and negative controls, respectively. All interaction mixtures were set up in duplicates and were incubated for 16 hours at room temperature.
(§2) After washing with PBS, 60 μl of the MHC-II-compound interaction mixtures were transferred from the interaction plate to the appropriate wells of the capture plate and incubated for 2 h at 4° C. The wells were washed six times with 200 μl/well of cooled (4 to 8° C.) 1×DELFIA wash (Wallac-ADL-GmbH, Freiburg), incubated with 100 μl of cooled Europium-streptavidin conjugate (Wallac-ADL-GmbH, Freiburg; diluted 1/1000 with DELFIA assay buffer) for 30 minutes at 4° C., again washed six times with cooled 1×DELFIA wash and, finally, incubated with 200 μl cooled DELFIA enhancement solution (Wallac-ADL-GmbH, Freiburg) for one hour at room temperature before reading the time-resolved europium fluorescence at λex Eu^3+: 340 nm and λem Eu^3+: 613 (615) nm (Wallac Victor^2 1420 Multilabel Counter, Wallac-ADL-GmbH, Freiburg).

[2] = Stability of compounds in mouse blood plasma; format: in vitro ADME
Description: (§3) The stability of the peptidomimetic compounds was determined in rat (Charles River Laboratories, Sulzfeld), mouse (Charles River Laboratories, Sulzfeld) and human (Bayerisches Rotes Kreuz, München) blood plasma (E. R. Garrett and M. R. Gardner, J Pharmaceutical Sciences 71 (1982) 14-25).
(§4) Compound stock solutions were diluted into blood plasma to give a final compound concentration of 5 μM and the mixtures were incubated at 37° C. At 0, 6 and 24 hours 1 ml samples were drawn and the plasma proteins were precipitated by the addition of 3 ml acetonitrile p.a. and whirlmixing. The precipitate was pelleted by centrifugation at 2000 g for 5 minutes. The supernatant was evaporated off to dryness and the residue was reconstituted in 400 μl 50% acetonitrile, 0.1% TFA in water.
(§5) PBS controls were prepared for unstable compounds accordingly.

[3] = target: DR4Dw4 (DRA1*0101 DRB1*0401) (Homo sapiens, UniProt P01903+P01911, A100K/A169T/F76Y/I96L/K127E/L162R/M171V/N62H/P40V/Q125Y/R42H/S133A/S149N/S66Y/V115G/V209L/W38E); experiment: Competitive binding to MHC-II protein DR4Dw4
Description: as §1, §2

[4] = system: T-cell proliferation, lymph node cells of chimeric 0401-IE transgenic mice; conditions: DR4-LN; for Immunsupressive assays DR4-LN (Max) % Inhibition: maximal inhibition; for IC50: read-out: Immunsupressive assays DR4-LN (IC50)
Description: The compounds were tested as follows to inhibit the proliferative T cell response of antigen-primed lymph node cells from mice carrying a chimeric mouse-human class II transgene with an RA-associated peptide binding site, and lack murine class II molecules (Muller et al., 1990; Woods et al., 1994; Current Protocols in Immunology, Vol. 2, 7.21; Ito et al., 1996). Here, the immunization takes place in vivo, but the inhibition and readout are ex vivo. […] These mice lack murine MHC class II, and thus, all Th responses are channelled through a single human RA-associated MHC class II molecule (Ito et al. 1996). These transgenic mice represent a model for testing human class II antagonists.
1.5×10^5 cells are incubated in 0.2 ml wells of 96-well tissue culture plates in the presence of ovalbumin (30 μg per well—half-maximal stimulatory concentration) and a dilution series of the compound under test (from around 0.1 to 200 uM) in serum free HL-1 medium containing 2 mM L-glutamine and 0.1 g/l Kanamycin for three days. Antigen specific proliferation is measured by 3H-methyl-thymidine (1 μCi/well) incorporation during the last 16 h of culture (Falcioni et al., 1999). Cells are harvested, and 3H incorporation measured using a scintillation counter (TopCount, Wallac Finland).

[5] = Stability of compounds in human blood plasma; format: in vitro ADME
Description: as §3, §4, §5

[6] = target: Cathepsin B1 (EC 3.4.22.1 from bovine spleen) (Bos taurus, UniProt P07688); conditions: Cathepsin B, 4 h
[7] = system: T-cell proliferation, DR14-LN; conditions: for Immunsupressive assays DR14-LN (Max) % Inhibition: maximal inhibition; for IC50: read-out: Immunsupressive assays DR14-LN (IC50)
[8] = Stability of compounds in rat blood plasma; format: in vitro ADME
Description: as §3, §4, §5

[9] = target: DR4Dw14 (DRA1*0101 DRB1*0404) (Homo sapiens, UniProt P01903+P01911, A100R/A169T/F76Y/I96L/K127E/L162R/M171V/N62H/P40V/Q125Y/R42H/S133A/S149N/S66Y/V209L/W38E); experiment: Competitive binding to MHC-II protein DR4Dw14; conditions: 0404; read-out: Protein binding IC50 (nM) 0404
Description: as §1, §2

[10] = target: Cathepsin D (EC 3.4.23.5 from bovine spleen) (Bos taurus, UniProt P80209)
Description: The stability of the peptidomimetic compounds towards lysosomal degradation was examined by incubation with Cathepsin B1 (EC 3.4.22.1 from bovine spleen; Sigma-Aldrich, Taufkirchen; dissolved at 10000 U/l in ddH2O) and D (EC 3.4.23.5 from bovine spleen; Sigma-Aldrich, Taufkirchen; dissolved at 10000 U/l in ddH2O) for four hours at 37° C. using a compound concentration of 50 μM and an enzyme/substrate ratio of 0.4 U/μmol. The samples contained 25 ppm 4-isopropyl benzyl alcohol (IPBA; Sigma-Aldrich, Taufkirchen) as internal standard.
Assay buffer was prepared by adding 35 μl of a 1% IPBA in DMSO solution and 28 μl of a 10000 U/l Cathepsin B1 or Cathepsin D stock solution to 14 ml of 100 mM sodium acetate, 1 mM EDTA, 1 mM DTT, pH 5.00 or 100 mM sodium acetate, pH 4.50, respectively. 8.8 μl of a 5 mM (or 4.4 μl of a 10 mM) compound stock solution (in 10% DMSO/water) were placed into a 1.5 ml Eppendorf tube. The reaction was started by adding 875 μl fully supplemented assay buffer to each tube, whirlmixing and incubation at 37° C. At 0 and 4 hours 400 μl samples were taken and the enzyme was inactivated by addition of 40 μl […] TFA aq. The samples were kept frozen at −20° C. until analysis by RP-HPLC (200 μl injection volume; Nucleosil 100-5 C18, 12.5×4.6 cm; Gradient: 20-50% acetonitrile in 30 min).
Compounds co-eluting with the internal standard during RP-HPLC analysis were tested without the standard as Example 16.

CCCC[C@H](NC(=O)[C@@H]1Cc2ccccc2CN1C(=O)[C@@H](NC(=O)[C@H](CC1CCCCC1)NC(C)=O)C1CCN(C(=N)N)CC1)C(=O)N(CCO)Cc1ccccc1 [Compound P78, Ac-Cha-Gpg-Tic-Nle-N(Bn)CH2CH2OH] (Ac-[Cha][Gly(1-amidinopiperidin-4-yl)][Tic][Nle]-X5)
IC50 [1]: 430 nM
Stability (Arbitrary units) Mouse 6 h [2]: 90 Arbitrary units
Stability (Arbitrary units) Mouse 24 h [2]: 113 Arbitrary units
IC50 [3]: 2.6 µM
Immunsupressive assays DR4-LN (Max) % Inhibition [4]: 97%
IC50 [4]: 36 µM
Stability (Arbitrary units) Human 6 h [5]: 73 Arbitrary units
Stability (Arbitrary units) Human 24 h [5]: 130 Arbitrary units
Stability (Arbitrary units) Cath B 4 h [6]: 100 Arbitrary units
Immunsupressive assays DR14-LN (Max) % Inhibition [7]: 100%
IC50 [7]: 36 µM
Stability (Arbitrary units) Rat 6 h [8]: 184 Arbitrary units
Stability (Arbitrary units) Rat 24 h [8]: 107 Arbitrary units
IC50 [9]: 1200 nM
Stability (Arbitrary units) Cath D 4 h [10]: 108 Arbitrary units

CCCC[C@H](NC(=O)[C@@H]1Cc2ccccc2CN1C(=O)[C@@H](NC(=O)[C@H](CC1CCCCC1)NC(C)=O)C1CCN(C(=N)N)CC1)C(=O)N1CCc2ccccc2C1 [Compound P77, Ac-Cha-Gpg-Tic-Nle-tetrahydroisoquinoline] (Ac-[Cha][Gly(1-amidinopiperidin-4-yl)][Tic][Nle]-{Tetrahydroisoquinolin(2-yl)})
IC50 [1]: 1900 nM
Stability (Arbitrary units) Mouse 6 h [2]: 141 Arbitrary units
Stability (Arbitrary units) Mouse 24 h [2]: 181 Arbitrary units
IC50 [3]: 8.7 µM
Immunsupressive assays DR4-LN (Max) % Inhibition [4]: 100%
IC50 [4]: 10 µM
Stability (Arbitrary units) Human 6 h [5]: 111 Arbitrary units
Stability (Arbitrary units) Human 24 h [5]: 114 Arbitrary units
Stability (Arbitrary units) Cath B 4 h [6]: 107 Arbitrary units
Immunsupressive assays DR14-LN (Max) % Inhibition [7]: 99%
IC50 [7]: 14 µM
Stability (Arbitrary units) Rat 6 h [8]: 129 Arbitrary units
Stability (Arbitrary units) Rat 24 h [8]: 57 Arbitrary units
IC50 [9]: 3600 nM
Stability (Arbitrary units) Cath D 4 h [10]: 95 Arbitrary units

CCCC[C@H](NC(=O)[C@@H]1Cc2ccccc2CN1C(=O)[C@H](CCCNC(=N)N)NC(=O)[C@H](CC1CCCCC1)NC(C)=O)C(=O)N(CCOCCO)Cc1ccccc1 [Compound P98, Ac-Cha-Arg-Tic-Nle-N(Bn)CH2CH2OCH2CH2OH] (Ac-[Cha]R[Tic][Nle]-X2)
IC50 [1]: 640 nM
Stability (Arbitrary units) Mouse 6 h [2]: 87 Arbitrary units
Stability (Arbitrary units) Mouse 24 h [2]: 54 Arbitrary units
IC50 [3]: 4.7 µM
Immunsupressive assays DR4-LN (Max) % Inhibition [4]: 67%
IC50 [4]: 69 µM
Stability (Arbitrary units) Human 6 h [5]: 116 Arbitrary units
Stability (Arbitrary units) Human 24 h [5]: 121 Arbitrary units
Stability (Arbitrary units) Cath B 4 h [6]: 104 Arbitrary units
IC50 [7]: > 200 µM
Stability (Arbitrary units) Rat 6 h [8]: 71 Arbitrary units
Stability (Arbitrary units) Rat 24 h [8]: 60 Arbitrary units
IC50 [9]: 1300 nM
Stability (Arbitrary units) Cath D 4 h [10]: 104 Arbitrary units

CCCC[C@H](NC(=O)[C@@H]1Cc2ccccc2CN1C(=O)[C@H](CCCNC(=N)N)NC(=O)[C@H](CC1CCCCC1)NC(C)=O)C(=O)N(CCOCCO)CCc1ccccc1 [Compound P88] (Ac-[Cha]R[Tic][Nle]-X4)
IC50 [1]: 2000 nM
Stability (Arbitrary units) Mouse 6 h [2]: 125 Arbitrary units
Stability (Arbitrary units) Mouse 24 h [2]: 128 Arbitrary units
IC50 [3]: 10 µM
IC50 [4]: 105 µM
Stability (Arbitrary units) Human 6 h [5]: 133 Arbitrary units
Stability (Arbitrary units) Human 24 h [5]: 123 Arbitrary units
Stability (Arbitrary units) Cath B 4 h [6]: 94 Arbitrary units
IC50 [7]: 37 µM
Stability (Arbitrary units) Rat 6 h [8]: 77 Arbitrary units
Stability (Arbitrary units) Rat 24 h [8]: 55 Arbitrary units
IC50 [9]: 5700 nM
Stability (Arbitrary units) Cath D 4 h [10]: 101 Arbitrary units
